Patent US11926609B1, “6′-(3-chlorophenyl)-2′-ethoxy-3,4′-bipyridine-3′-carbonitrile as antimicrobial compounds” (KING FAISAL UNIVERSITY, priority 2023, dated 2024)

How the values were obtained:
Type in all cases: cell-based
[1] = tested on: Chrysosporium keratinophilum; test: Agar plate disc-diffusion, antifungal inhibition zone; conditions: Sabouraud's dextrose agar, 72 h, DMSO zone subtracted
Protocol: (§1) The agar plate disc-diffusion method was applied. Sterilized filter papers (6 mm in diameter) were wetted with 10 μL of a solution of 6′-(3-chlorophenyl)-2′-ethoxy-3,4′-bipyridine-3′-carbonitrile (4) to be tested, containing […], and the discs were allowed to air dry. The discs were then placed onto the surface of agar plates (nutrient agar for bacteria and Sabouraud's dextrose agar for fungi) seeded with the test organism. Each plate contained 15 mL of the agar medium, previously seeded with 0.2 mL of the broth culture of each organism pregrown for 18 hours. The plates were incubated at 37° C. for 48 h, and 72 h for fungi. The inhibition zones were measured in mm. Discs impregnated with DMSO were used as a control, and its inhibition zone was subtracted from the tested compound actual inhibition zone.
(§2) The results of the antimicrobial testing can be observed in Tables 1 and 2, below, using ciprofloxacin as a reference.

Aspergillus flavus = test: as above; conditions: Sabouraud's dextrose agar, 72 h, DMSO zone subtracted
Protocol: as §1, §2

Pseudomonas aeruginosa = test: Agar plate disc-diffusion, antibacterial inhibition zone; conditions: Gram negative, nutrient agar, 37° C., 48 h, DMSO zone subtracted
Protocol: as §1, §2

Bacillus Cereus = test: as above; conditions: Gram positive, nutrient agar, 37° C., 48 h, DMSO zone subtracted
Protocol: as §1, §2

Escherichia coli = test: as above; conditions: Gram negative, nutrient agar, 37° C., 48 h, DMSO zone subtracted
Protocol: as §1, §2

Staphylococcus aureus = test: as above; conditions: Gram positive, nutrient agar, 37° C., 48 h, DMSO zone subtracted
Protocol: as §1, §2

[2] = A = concentration of comp. = 10,000 μL
[3] = B = concentration of comp. = 30.000 μL
[4] = C = concentration of comp. = 50,000 μL

SMILES: CCOc1nc(-c2cccc(Cl)c2)cc(-c2cccnc2)c1C#N [compound 4, 6′-(3-chlorophenyl)-2′-ethoxy-3,4′-bipyridine-3′-carbonitrile]
- inhibition zone, Chrysosporium keratinophilum, A [1, 2]: 24 mm
- inhibition zone, Chrysosporium keratinophilum, B [1, 3]: 26 mm
- inhibition zone, Chrysosporium keratinophilum, C [1, 4]: 47 mm
- inhibition zone, Aspergillus flavus, A (Aspergillus flavus; [2]): 21 mm
- inhibition zone, Aspergillus flavus, B (Aspergillus flavus; [3]): 25 mm
- inhibition zone, Aspergillus flavus, C (Aspergillus flavus; [4]): 36 mm
- inhibition zone, Pseudomonas aeruginosa, A (Pseudomonas aeruginosa; [2]): 22 mm
- inhibition zone, Pseudomonas aeruginosa, B (Pseudomonas aeruginosa; [3]): 29 mm
- inhibition zone, Pseudomonas aeruginosa, C (Pseudomonas aeruginosa; [4]): 38 mm
- inhibition zone, Bacillus Cereus, A (Bacillus Cereus; [2]): 26 mm
- inhibition zone, Bacillus Cereus, B (Bacillus Cereus; [3]): 28 mm
- inhibition zone, Bacillus Cereus, C (Bacillus Cereus; [4]): 40 mm
- inhibition zone, Escherichia coli, A (Escherichia coli; [2]): 26 mm
- inhibition zone, Escherichia coli, B (Escherichia coli; [3]): 36 mm
- inhibition zone, Escherichia coli, C (Escherichia coli; [4]): 48 mm
- inhibition zone, Staphylococcus aureus, A (Staphylococcus aureus; [2]): 19 mm
- inhibition zone, Staphylococcus aureus, B (Staphylococcus aureus; [3]): 26 mm
- inhibition zone, Staphylococcus aureus, C (Staphylococcus aureus; [4]): 33 mm
